One may read the inhibition as how much of the control response was suppressed.

The record followed here is US9662357B2, “Bacterium and extracts of said bacterium and the use of same in dermatology” (PIERRE FABRE DERMO-COSMETIQUE, priority 2010, dated 2017).

Holding throughout (assay type): cell-based
The test system of one test is Bacterium LMB64. Kind of test: Antibiotic sensitivity of bacterium LMB64, zone of inhibition. The conditions noted are these: disc load given with each antibiotic; for Zone of inhibition diameter (mm) LB ½: LB ½ dilution medium; for Zone of inhibition diameter (mm) LB ⅕: LB ⅕ dilution medium; for Zone of inhibition diameter (mm) R3: R3 medium.
For a further test, the system named is RANTES. The test can be described thus: PCR array, NHEK atopic dermatitis phenotype: RANTES. The conditions noted are these: Homo sapiens, read-out: percentage of inhibition RANTES. Here is the method: (§1) The study was carried out on normal human epidermal keratinocytes (NHEK, K-SFM culture medium) in the context of the induction of an atopic dermatitis phenotype.

The next test has as its system Skinkine. The test can be described thus: PCR array, NHEK atopic dermatitis phenotype: Skinkine. The conditions noted are these: Homo sapiens, read-out: percentage of inhibition Skinkine. On the procedure:
as §1

A further test deals with TSLP. Kind of test: PCR array, NHEK atopic dermatitis phenotype: TSLP. The conditions noted are these: Homo sapiens, read-out: percentage of inhibition TSLP. Here is the method: as §1
Another test concerns IL-8. Kind of test: PCR array, NHEK atopic dermatitis phenotype: IL-8. The conditions noted are these: Homo sapiens, read-out: percentage of inhibition IL-8. Here is the method:
as §1

For the next test, the system named is MIP-3α. The test can be described thus: PCR array, NHEK atopic dermatitis phenotype: MIP-3α. As to conditions: Homo sapiens, read-out: percentage of inhibition MIP-3α. On the procedure: as §1
The next test relates to IL-4-R. Kind of test: PCR array, NHEK atopic dermatitis phenotype: IL-4-R. The conditions noted are these: Homo sapiens, read-out: percentage of inhibition IL-4-R. On the procedure: as §1
For a further test, the system named is MDC. The test can be described thus: PCR array, NHEK atopic dermatitis phenotype: MDC. The conditions noted are these: Homo sapiens, read-out: percentage of inhibition MDC. On the procedure: as §1
The subject of a further test is RARRES3. The test can be described thus: PCR array, NHEK atopic dermatitis phenotype: RARRES3. The conditions noted are these: Homo sapiens, read-out: percentage of inhibition RARRES3. On the procedure: as §1
Another test concerns IL-18. The test can be described thus: PCR array, NHEK atopic dermatitis phenotype: IL-18. As to conditions: Homo sapiens, read-out: percentage of inhibition IL-18. Here is the method: as §1
In a further test the test system is MlP-1α. Kind of test: PCR array, NHEK atopic dermatitis phenotype: MlP-1α. As to conditions: Homo sapiens, read-out: percentage of inhibition MlP-1α. On the procedure: as §1
The next test has as its system IFN-β1. The test can be described thus: PCR array, NHEK atopic dermatitis phenotype: IFN-β1. As to conditions: Homo sapiens, read-out: percentage of inhibition IFN-β1. Here is the method: as §1
Another test concerns IL-1α. The test can be described thus: PCR array, NHEK atopic dermatitis phenotype: IL-1α. As to conditions: Homo sapiens, read-out: percentage of inhibition IL-1α. Here is the method: as §1

Regarding `CC1(C)S[C@@H]2[C@H](NC(=O)[C@H](N)c3ccccc3)C(=O)N2[C@H]1C(=O)O` [Ampicillin], in the test on Bacterium LMB64, the “Zone of inhibition diameter (mm) LB ½” value is listed as 28 mm, the “Zone of inhibition diameter (mm) LB ⅕” value is 29 mm and the “Zone of inhibition diameter (mm) R3” value came out at 29 mm.

For `O=C(N[C@H](CO)[C@H](O)c1ccc([N+](=O)[O-])cc1)C(Cl)Cl` [Chloramphenicol], in the test with Bacterium LMB64, the “Zone of inhibition diameter (mm) LB ½” value amounted to 26 mm, the “Zone of inhibition diameter (mm) LB ⅕” value came to 24 mm and the “Zone of inhibition diameter (mm) R3” value was 29 mm.

With `O=C(O)c1cn(C2CC2)c2cc(N3CCNCC3)c(F)cc2c1=O` [Ciprofloxacin], in the test on Bacterium LMB64, the “Zone of inhibition diameter (mm) LB ⅕” value is given as 34 mm and the “Zone of inhibition diameter (mm) R3” value was 38 mm.

For `C[C@@H]1C[C@H]2[C@@H]3CCC4=CC(=O)C=C[C@]4(C)[C@@]3(F)[C@@H](O)C[C@]2(C)[C@@]1(O)C(=O)CO` [Dexamethasone], the inhibition at 2 µM was 12% in the test on RANTES; 59% in the test with Skinkine; 91% in the test with TSLP; 75% in the test with IL-8; 40% in the test on MIP-3α; 75% in the test on IL-4-R. In addition, the inhibition at 2 µM with MDC turned out to be 45%; in the test with RARRES3, 28%; with IL-18, 44%; in the test on MlP-1α, 76%; in the test on IFN-β1, 49%; in the test on IL-1α it was 54%.

Turning to `NC[C@H]1O[C@H](O[C@H]2[C@H](O)[C@@H](O[C@H]3O[C@H](CO)[C@@H](O)[C@H](N)[C@H]3O)[C@H](N)C[C@@H]2N)[C@H](O)[C@@H](O)[C@@H]1O` [Kanamycin], in the test on Bacterium LMB64, the “Zone of inhibition diameter (mm) LB ½” value is reported as 30 mm, the “Zone of inhibition diameter (mm) LB ⅕” value amounted to 27 mm and the “Zone of inhibition diameter (mm) R3” value was 27 mm.

Regarding `CO[C@H]1/C=C/O[C@@]2(C)Oc3c(C)c(O)c4c(O)c(c(/C=N/N5CCN(C)CC5)c(O)c4c3C2=O)NC(=O)/C(C)=C\C=C\[C@H](C)[C@H](O)[C@@H](C)[C@@H](O)[C@@H](C)[C@H](OC(C)=O)[C@@H]1C` [Rifampicin], in the test with Bacterium LMB64, the “Zone of inhibition diameter (mm) LB ½” value is recorded as 19 mm, the “Zone of inhibition diameter (mm) LB ⅕” value amounted to 15 mm and the “Zone of inhibition diameter (mm) R3” value came to 20 mm.

Turning to `[H]/N=C(/N)N[C@H]1[C@H](O)[C@@H](O)[C@H](O[C@@H]2O[C@@H](C)[C@](O)(C=O)[C@H]2O[C@@H]2O[C@@H](CO)[C@H](O)[C@@H](O)[C@@H]2NC)[C@@H](N/C(N)=N\[H])[C@@H]1O` [Streptomycin], in the test on Bacterium LMB64, the “Zone of inhibition diameter (mm) LB ½” value is 25 mm, the “Zone of inhibition diameter (mm) LB ⅕” value was 24 mm and the “Zone of inhibition diameter (mm) R3” value turned out to be 25 mm.

As to `CN(C)[C@@H]1C(O)=C(C(N)=O)C(=O)[C@@]2(O)C(O)=C3C(=O)c4c(O)cccc4[C@@](C)(O)[C@H]3C[C@@H]12` [Tetracycline], in the test on Bacterium LMB64, the “Zone of inhibition diameter (mm) LB ½” value is reported as 25 mm, the “Zone of inhibition diameter (mm) LB ⅕” value was 20 mm and the “Zone of inhibition diameter (mm) R3” value was determined as 30 mm.

For `CN[C@H](CC(C)C)C(=O)N[C@H]1C(=O)N[C@@H](CC(N)=O)C(=O)N[C@H]2C(=O)N[C@H]3C(=O)N[C@H](C(=O)N[C@H](C(=O)O)c4cc(O)cc(O)c4-c4cc3ccc4O)[C@H](O)c3ccc(c(Cl)c3)Oc3cc2cc(c3O[C@@H]2O[C@H](CO)[C@@H](O)[C@H](O)[C@H]2O[C@H]2C[C@](C)(N)[C@H](O)[C@H](C)O2)Oc2ccc(cc2Cl)[C@H]1O` [Vancomycin], in the test with Bacterium LMB64, the “Zone of inhibition diameter (mm) LB ½” value is listed as 21 mm, the “Zone of inhibition diameter (mm) LB ⅕” value is 21 mm and the “Zone of inhibition diameter (mm) R3” value came out at 20 mm.

Penicillin: in the test on Bacterium LMB64, the “Zone of inhibition diameter (mm) LB ½” value is 26 mm, the “Zone of inhibition diameter (mm) LB ⅕” value was found to be 20 mm and the “Zone of inhibition diameter (mm) R3” value stood at 21 mm.

In the case of Polymyxin B, in the test with Bacterium LMB64, the “Zone of inhibition diameter (mm) LB ½” value is 15 mm, the “Zone of inhibition diameter (mm) LB ⅕” value was found to be 13 mm and the “Zone of inhibition diameter (mm) R3” value is listed as 11 mm.
